Legend:
[1] = tested on: HAP1 MTAP-intact cell line; test: SDMA in-cell western assay, HAP1 MTAP-intact; assay type: cell-based; conditions: Homo sapiens, HAP1, SDMA in-cell western, HAP1 MTAP-intact; read-out: MTAP HAP1 intact IC50
How it was run: (§1)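 Compounds were tested in HAP1 cells differing only in MTAP status (endogenous expression versus null). Cellular SDMA levels were then measured by in-cell western, giving an IC50 in each background.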

[2] = target: T1, PRMT5 (Homo sapiens, UniProt O14744); test: PRMT5 biochemical IC50 assay with SAM as cofactor; conditions: PRMT5, SAM as cofactor; read-out: SAM IC50
T1 construct: purchased Viva (custom protein)
T1 sequence (O14744 whole entry): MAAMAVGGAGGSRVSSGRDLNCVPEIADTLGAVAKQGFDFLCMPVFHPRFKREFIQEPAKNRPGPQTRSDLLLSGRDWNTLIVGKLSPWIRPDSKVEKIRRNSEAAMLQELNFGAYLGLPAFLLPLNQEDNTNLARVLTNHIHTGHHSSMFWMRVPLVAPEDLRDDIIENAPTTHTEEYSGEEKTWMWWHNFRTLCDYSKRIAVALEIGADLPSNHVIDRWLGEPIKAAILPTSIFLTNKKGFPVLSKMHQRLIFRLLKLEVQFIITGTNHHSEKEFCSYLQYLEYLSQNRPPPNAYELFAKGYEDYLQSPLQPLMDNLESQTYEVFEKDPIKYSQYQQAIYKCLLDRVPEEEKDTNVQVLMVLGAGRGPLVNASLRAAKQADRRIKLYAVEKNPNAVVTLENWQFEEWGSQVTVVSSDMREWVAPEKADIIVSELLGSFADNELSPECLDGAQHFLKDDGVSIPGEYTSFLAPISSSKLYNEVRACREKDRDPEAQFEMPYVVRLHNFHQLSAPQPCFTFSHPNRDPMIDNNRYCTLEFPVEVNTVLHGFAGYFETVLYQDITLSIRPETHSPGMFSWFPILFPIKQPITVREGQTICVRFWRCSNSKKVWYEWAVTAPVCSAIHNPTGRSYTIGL
T1 sequence (Q9BQA1 whole entry partner): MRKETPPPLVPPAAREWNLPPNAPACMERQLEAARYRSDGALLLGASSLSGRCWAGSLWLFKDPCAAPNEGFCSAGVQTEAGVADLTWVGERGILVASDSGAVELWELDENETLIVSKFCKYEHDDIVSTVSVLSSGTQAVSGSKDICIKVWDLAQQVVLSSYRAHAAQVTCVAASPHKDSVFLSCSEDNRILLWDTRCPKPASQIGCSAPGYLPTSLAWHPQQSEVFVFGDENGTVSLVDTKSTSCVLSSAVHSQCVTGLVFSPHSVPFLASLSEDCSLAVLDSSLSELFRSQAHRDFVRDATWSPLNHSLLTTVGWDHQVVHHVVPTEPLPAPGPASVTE

[3] = target: T1, PRMT5; test: PRMT5 biochemical IC50 assay with MTA as cofactor; conditions: PRMT5, MTA as cofactor; read-out: MTA IC50
[4] = tested on: HAP1 MTAP-deleted cell line; test: SDMA in-cell western assay, HAP1 MTAP-deleted; assay type: cell-based; conditions: for IC50: Homo sapiens, HAP1, SDMA in-cell western, HAP1 MTAP-deleted; for MTAP intact/deleted ratio: SDMA in-cell western
How it was run: as §1

[5] = tested on: HAP1 MTAP-deleted cell line; test: Viability assay, MTAP-deleted cell line; assay type: cell-based; conditions: Homo sapiens, read-out: HAP1 MTAP deleted viability
Description: Table 1 additionally indicates IC50 values in a viability assay for the MTAP-deleted cell line (column 10), indicating the effect of treatment with compound on cell survival.

[6] = target: T1, PRMT5; test: PRMT5 biochemical IC50 assay with no cofactor; conditions: PRMT5, no cofactor
Description: Table 1 indicates IC50 values (μM) against PRMT5 for exemplary compounds in the presence of SAM as cofactor, with no cofactor, and with MTA as cofactor, respectively (columns 4-6). […] Ki values can be calculated from the IC50 values as described in the Examples section. As detailed in the Examples section, for the assay performed in the presence of SAM, IC50=Ki×1.5 (Ki=IC50/1.5).

[7] = read-out: HAP1 MTAP deleted IC50
[8] = IC50 ratio HAP1 MTAP-intact / HAP1 MTAP-deleted
[9] = HAP1, viability assay, MTAP-deleted cell line
[10] = IC50 ratio HAP1 MTAP-intact vs HAP1 MTAP-deleted
[11] = read-out: HAP 1 MTAP deleted IC50
[12] = HAP1, viability IC50, MTAP-deleted cell line
[13] = HAP1, viability assay, HAP1 MTAP-deleted
[14] = HAP1, viability, HAP1 MTAP-deleted cell line
[15] = read-out: No Cofactor/ rel IC50

Compound	IC50 [1]	IC50 [2]	IC50 [3]	IC50 [4, 7]	IC50 ([6]; read-out: No Cofactor/rel IC50)	IC50 [4, 11]	IC50 [6, 15]	MTAP intact/deleted ratio [4, 8]	IC50 [5, 9]	MTAP intact/deleted ratio [4, 10]	IC50 [5, 12]	IC50 [5, 13]	IC50 [5, 14]
NC(=O)c1cncc(NC(=O)C(=O)N2C[C@H]3CC[C@H](C3)[C@H]2c2ccccc2)c1 (single isomer, unassigned) [Compound 194]	> 1000 nM	> 500 nM	> 500 nM	> 1000 nM	> 500 nM			C (an IC50 ratio of less than 3 fold)	> 10000 nM				
CNc1ccc([C@@H]2CC[C@H](C)CN2C(=O)C(=O)Nc2cnc(OC)c(C(N)=O)c2)cn1 (single isomer, unassigned) [Compound 468]	> 1000 nM	> 500 nM	> 500 nM	> 1000 nM	> 500 nM			C (an IC50 ratio of less than 3 fold)	> 10000 nM				
CCc1cc(NC(=O)C(=O)N2C[C@@H](C)CC[C@@H]2c2ccc3sc(-c4ccncc4)nc3c2)cnc1N [Compound 1194, N-(6-amino-5-ethylpyridin-3-yl)-2-((2R,5S)-5-methyl-2-(2-(pyridin-4-yl)benzo[d]thiazol-5-yl)piperidin-1-yl)-2-oxoacetamide]	100 to 1000 nM	50 to 500 nM	< 50 nM	< 100 nM	< 50 nM				< 1000 nM	A (an IC50 ratio greater than or equal to 10 fold)			
C[C@@H]1CC[C@@H](c2cccc(OC(F)(F)F)c2)N(C(=O)C(=O)Nc2cncc(C(N)=O)c2)C1 (racemic) [Compound 279, rac-5-{2-[(2R,5S)-5-Methyl-2-[3-(trifluoromethoxy)phenyl]piperidin-1-yl]-2-oxoacetamido}pyridine-3-carboxamide]	> 1000 nM	50 to 500 nM	< 50 nM	100 to 1000 nM	50 to 500 nM			A (an IC50 ratio greater than or equal to 10 fold)	1000 to 10000 nM				
C[C@H]1CC[C@H](c2cc3cn[nH]c3cc2F)N(C(=O)C(=O)Nc2cncc(C(N)=O)c2)C1 (single isomer, unassigned) [Compound 553]	> 1000 nM	50 to 500 nM	< 50 nM		50 to 500 nM	100 to 1000 nM		A (an IC50 ratio greater than or equal to 10 fold)			1000 to 10000 nM		
Cc1ccc([C@H]2CC[C@H](C)CN2C(=O)C(=O)Nc2cnc(N)c(C)c2)cn1 (single isomer, unassigned) [Compound 707]	> 1000 nM	> 500 nM	> 500 nM	> 1000 nM	> 500 nM			B (an IC50 ratio greater than or equal to 3 fold but lower than 10 fold)				> 10000 nM	
CCc1cc(NC(=O)C(=O)N2C[C@H](C)CC[C@H]2c2ccc3[nH]ncc3c2)cnc1N (single isomer, unassigned) [Compound 579]	> 1000 nM	> 500 nM	> 500 nM		> 500 nM	> 1000 nM		B (an IC50 ratio greater than or equal to 3 fold but lower than 10 fold)			> 10000 nM		
C[C@@H]1CC[C@@H](c2ccc3[nH]c(=O)ccc3c2)N(C(=O)C(=O)Nc2cncc(C(N)=O)c2)C1 (single isomer, unassigned) [Compound 804]	> 1000 nM	> 500 nM	> 500 nM	> 1000 nM	> 500 nM			C (an IC50 ratio of less than 3 fold)				> 10000 nM	
C[C@@H]1CC[C@@H](c2ccc(N)cc2)N(C(=O)C(=O)Nc2cncc(C(N)=O)c2)C1 (single isomer, unassigned) [Compound 381]	> 1000 nM	50 to 500 nM	< 50 nM	< 100 nM	< 50 nM			A (an IC50 ratio greater than or equal to 10 fold)	< 1000 nM				
NC(=O)c1cncc(NC(=O)C(=O)N2CCC3(CC2)OCC2CC23)c1 (stereo not shown) [Compound 149, 5-(2-{3-Oxaspiro[bicyclo[3.1.0]hexane-2,4′-piperidine]-1′-yl}-2-oxoacetamido)pyridine-3-carboxamide]	> 1000 nM	50 to 500 nM	50 to 500 nM			> 1000 nM	> 500 nM	C (an IC50 ratio of less than 3 fold)	> 10000 nM				
COc1ncc(NC(=O)C(=O)N2C[C@@H](C)CC[C@@H]2c2ccc3c(c2)OCCN3)cc1C(N)=O (racemic) [Compound 869, 5-[[2-[(2R,5S)-2-(3,4-dihydro-2H-1,4-benzoxazin-7-yl)-5-methyl-1-piperidyl]-2-oxo-acetyl]amino]-2-methoxy-pyridine-3-carboxamide]	> 1000 nM	50 to 500 nM	50 to 500 nM	< 100 nM	50 to 500 nM			A (an IC50 ratio greater than or equal to 10 fold)				< 1000 nM	
Cc1cc(NC(=O)C(=O)N2C[C@H](C)CC[C@H]2c2cccc(C(F)(F)F)c2)cnc1N (single isomer, unassigned) [Compound 496]	> 1000 nM	50 to 500 nM	< 50 nM	< 100 nM	< 50 nM			A (an IC50 ratio greater than or equal to 10 fold)	1000 to 10000 nM				
C[C@@H]1CC[C@@H](c2ccn(-c3cc[nH]n3)n2)N(C(=O)C(=O)Nc2cncc(C(N)=O)c2)C1 (single isomer, unassigned) [Compound 899]	> 1000 nM	50 to 500 nM	< 50 nM		50 to 500 nM	100 to 1000 nM		A (an IC50 ratio greater than or equal to 10 fold)	1000 to 10000 nM				

More lines, main results first:

IC50 [1]	IC50 [2]	IC50 [3]	IC50 [4, 7]	IC50 ([6]; read-out: No Cofactor/rel IC50)	IC50 [4, 11]	IC50 [6, 15]	Compound	MTAP intact/deleted ratio [4, 8]	IC50 [5, 9]	MTAP intact/deleted ratio [4, 10]	IC50 [5, 12]	IC50 [5, 13]	IC50 [5, 14]
< 100 nM	< 50 nM	< 50 nM	< 100 nM	< 50 nM			CC(=O)N1CCC(c2nc3cc([C@H]4CC[C@H](C)CN4C(=O)C(=O)Nc4cnc(N)c(C)c4)ccc3s2)CC1 [Compound 1093, 2-((2R,5S)-2-(2-(1-acetylpiperidin-4-yl)benzo[d]thiazol-5-yl)-5-methylpiperidin-1-yl)-N-(6-amino-5-methylpyridin-3-yl)-2-oxoacetamide]		< 1000 nM	A (an IC50 ratio greater than or equal to 10 fold)			
< 100 nM	< 50 nM	< 50 nM			< 100 nM	< 50 nM	Cc1ncc(NC(=O)C(=O)N2C[C@@H](C)CC[C@@H]2c2ccc3sc(C4CCN(C)CC4)nc3c2)cc1C(F)F [Compound 1301]	A (an IC50 ratio greater than or equal to 10 fold)					< 1000 nM
< 100 nM	< 50 nM	< 50 nM			< 100 nM	< 50 nM	CCc1cc(NC(=O)C(=O)N2C[C@@H](C)CC[C@@H]2c2ccc3sc(CCCN(C)C)nc3c2)cnc1N [Compound 1262, N-(6-amino-5-ethylpyridin-3-yl)-2-((2R,5S)-2-(2-(3-(dimethylamino)propyl)benzo[d]thiazol-5-yl)-5-methylpiperidin-1-yl)-2-oxoacetamide]	A (an IC50 ratio greater than or equal to 10 fold)					< 1000 nM
< 100 nM	50 to 500 nM	< 50 nM	< 100 nM	< 50 nM			COc1ncc(NC(=O)C(=O)N2C[C@@H](C)CC[C@@H]2c2ccc3sc(C4CCN(C5CC5)CC4)nc3c2)cc1C(N)=O [Compound 1219, 5-(2-((2R,5S)-2-(2-(1-cyclopropylpiperidin-4-yl)benzo[d]thiazol-5-yl)-5-methylpiperidin-1-yl)-2-oxoacetamido)-2-methoxynicotinamide]		< 1000 nM	A (an IC50 ratio greater than or equal to 10 fold)			
< 100 nM	50 to 500 nM	< 50 nM	< 100 nM	50 to 500 nM			COCc1nc2cc([C@H]3CC[C@H](C)CN3C(=O)C(=O)Nc3cnc(N)c(C)c3)ccc2s1 (single isomer, unassigned) [Compound 1211]		< 1000 nM	A (an IC50 ratio greater than or equal to 10 fold)			
< 100 nM	< 50 nM	50 to 500 nM		50 to 500 nM	< 100 nM		Cc1cc([C@@H]2CC[C@@H](C)CN2C(=O)C(=O)Nc2cnc(N)c(C)c2)ccc1O (single isomer, unassigned) [Compound 572]	A (an IC50 ratio greater than or equal to 10 fold)			< 1000 nM		

Reference: US11999727B2 (Tango Therapeutics, Inc., priority 2020, dated 2024)
